Reference: patent US8475823B2, “Baclofen formulation in a polyorthoester carrier” (Medtronic, Inc., priority 2008, dated 2013)

Experiments:
[1] = test system: normal bladder activity (frequency of reflex bladder contractions); assay: Epidural infusion of baclofen in a rat model of bladder pain, intravesical saline infusion (normal bladder activity); type: in vivo; conditions: female rat, epidural infusion 10 μg/day
Protocol: (§1) FIG. 1 is a graphic representation of epidural infusion of baclofen in rats treated with an intravesical infusion of saline. Baseline bladder activity was measured before epidural drug treatment as described in Example 4. The columns and error bars represent the mean and SEM values of 10 rats per group. Asterisks indicate statistically significant dose effects compared to baseline as determined by post-hoc Dunnett Multiple Comparison Test.
(§2) An animal model that has been used frequently to study pelvic pain conditions is a rat model of bladder pain. In this model, a female rat was lightly anesthetized with isoflurane and a transurethral catheter was placed into the bladder. The catheter was connected to a pressure transducer so that the pressure within the bladder could be continuously monitored and recorded over time. Fluid was continuously infused into the bladder using a syringe pump at a rate of 0.1 mL/min to cause the bladder to contract repeatedly each time it became full. This is referred to as a volume-evoked micturition reflex or contraction. A repeated series of bladder contractions (pressure spikes) over time was collected using this method. To mimic normal bladder activity, 0.9% saline was infused into the bladder; to mimic painful bladder activity, a dilute solution of acetic acid (0.5%) was infused into the bladder. […]

[2] = test system: acetic acid induced bladder hypermotility (frequency of bladder contraction reflexes); assay: Epidural infusion of baclofen in a rat model of bladder pain, intravesical acetic acid infusion (painful bladder activity); type: in vivo; conditions: female rat, epidural infusion 10 μg/day
Protocol: as §1, with “FIG. 2” for “FIG. 1”, “of acetic acid as described in Example 4.” for “of saline.”, “drug treatment.” for “drug treatment as described in Example 4.”
as §2, with “contraction.” for “contraction. A repeated series of bladder contractions (pressure spikes) over time was collected using this method. To mimic normal bladder activity, 0.9% saline was infused into the bladder; to mimic painful bladder activity, a dilute solution of acetic acid (0.5%) was infused into the bladder.”
In order to evaluate the effects of epidurally administered analgesics on normal and painful bladder activity (frequency of reflex bladder contractions), test drugs were continuously administered via an epidural catheter with the tip placed in the mid-lumbar epidural space. […] In the experiments depicted in FIGS. 1 and 2, the baseline bladder activity was measured before implanting the epidural infusion system, the infusion system was implanted on day 0 and cystometrograms were recorded on three consecutive days during which baclofen (10 μg/day) was infused into the lumbar epidural space.
Baclofen at 10 μg/day reduced acetic acid induced bladder hypermotility by approximately 3 fold on day 3. The frequency of bladder contraction observed during acetic acid infusion and epidural baclofen administration was similar to the baseline bladder activity measured during saline infusion (0.195±0.047 day 3 acetic acid and epidural baclofen vs 0.193±0.035 baseline saline).

Question: Which results are given for NCC(CC(=O)O)c1ccc(Cl)cc1 (centres unmarked) [baclofen, 4-amino-3-(4-chlorophenyl)butanoic acid]?
Answer: effects on normal bladder activity measured during saline infusion ([1]; days 1 and 2, vs baseline): minimal effects; contraction rate relative to the baseline reflex contraction rate ([1]; saline infusion, day three): statistically significant reductions; frequency of bladder contraction reflexes during acetic acid infusion ([2]; 0.5% acetic acid, all three days, vs baseline): significantly reduced; reduction of acetic acid induced bladder hypermotility ([2]; day 3): approximately 3 fold; frequency of bladder contraction during acetic acid infusion and epidural baclofen administration ([2]; day 3, mean ± SEM, 10 rats per group): 0.195±0.047 reflexes per min
